Data: ChEMBL document CHEMBL2413072, “Synthesis and in vitro anticancer studies of novel C-2 arylidene congeners of lantadenes” (2013)

Key:
Format in all cases: functional
SK-MEL-28 = test: Growth inhibition of human SK-MEL-28 cells by sulforhodamine B assay
786-0 [1] = test: Growth inhibition of human 786-0 cells assessed as cell growth at 10^-8 M by sulforhodamine B assay; conditions: read-out: Activity
[2] = Growth inhibition of human NCI-ADR-RES cells assessed as cell growth at 10^-7 M by sulforhodamine B assay; conditions: read-out: Activity
OVCAR-3 = test: Growth inhibition of human OVCAR3 cells assessed as cell growth at 10^-8 M by sulforhodamine B assay; conditions: read-out: Activity
[3] = Growth inhibition of human Hs 578T cells assessed as cell growth at 10^-7 M by sulforhodamine B assay; conditions: read-out: Activity
786-0 [4] = test: Growth inhibition of human 786-0 cells by sulforhodamine B assay
NCI-H522 = test: Growth inhibition of human NCI-H522 cells assessed as cell growth at 10^-7 M by sulforhodamine B assay; conditions: read-out: Activity
NCI-H460 = test: Growth inhibition of human NCI-H460 cells by sulforhodamine B assay
IGROV-1 [5] = test: Growth inhibition of human IGROV1 cells assessed as cell growth at 10^-8 M by sulforhodamine B assay; conditions: read-out: Activity
MDA-MB-468 [6] = test: Growth inhibition of human MDA-MB-468 cells by sulforhodamine B assay
MDA-MB-435 = test: Growth inhibition of human MDA-MB-435 cells assessed as cell growth at 10^-8 M by sulforhodamine B assay; conditions: read-out: Activity
Malme-3M = test: Growth inhibition of human MALME-3M cells assessed as cell growth at 10^-7 M by sulforhodamine B assay; conditions: read-out: Activity
HCT-116 [7] = test: Growth inhibition of human HCT116 cells assessed as cell growth at 10^-6 M by sulforhodamine B assay; conditions: read-out: Activity
TK-10 [8] = test: Growth inhibition of human TK10 cells assessed as cell growth at 10^-6 M by sulforhodamine B assay; conditions: read-out: Activity
COLO 205 = test: Growth inhibition of human COLO205 cells assessed as cell growth at 10^-8 M by sulforhodamine B assay; conditions: read-out: Activity
K562 [9] = test: Growth inhibition of human K562 cells assessed as cell growth at 10^-8 M by sulforhodamine B assay; conditions: read-out: Activity
HOP-92 = test: Growth inhibition of human HOP92 cells assessed as cell growth at 10^-6 M by sulforhodamine B assay; conditions: read-out: Activity
NCI-H23 = test: Growth inhibition of human NCI-H23 cells assessed as cell growth at 10^-4 M by sulforhodamine B assay; conditions: read-out: Activity
MDA-MB-231 [10] = test: Growth inhibition of human MDA-MB-231 cells assessed as cell growth at 10^-7 M by sulforhodamine B assay; conditions: read-out: Activity
RPMI-8226 = test: Growth inhibition of human RPMI8226 cells assessed as cell growth at 10^-4 M by sulforhodamine B assay; conditions: read-out: Activity
MDA-MB-231 [11] = test: Growth inhibition of human MDA-MB-231 cells assessed as cell growth at 10^-6 M by sulforhodamine B assay; conditions: read-out: Activity
MDA-MB-468 [12] = test: Growth inhibition of human MDA-MB-468 cells assessed as cell growth at 10^-4 M by sulforhodamine B assay; conditions: read-out: Activity
TK-10 [13] = test: Growth inhibition of human TK10 cells assessed as cell growth at 10^-7 M by sulforhodamine B assay; conditions: read-out: Activity
RXF 393 = test: Growth inhibition of human RXF393 cells by sulforhodamine B assay
CCRF-CEM [14] = test: Growth inhibition of human CCRF-CEM cells assessed as cell growth at 10^-6 M by sulforhodamine B assay; conditions: read-out: Activity
SN12C [15] = test: Growth inhibition of human SN12C cells assessed as cell growth at 10^-6 M by sulforhodamine B assay; conditions: read-out: Activity
OVCAR-4 = test: Growth inhibition of human OVCAR4 cells assessed as cell growth at 10^-4 M by sulforhodamine B assay; conditions: read-out: Activity
[16] = Growth inhibition of human NCI-ADR-RES cells assessed as cell growth at 10^-4 M by sulforhodamine B assay; conditions: read-out: Activity
SN12C [17] = test: Growth inhibition of human SN12C cells assessed as cell growth at 10^-7 M by sulforhodamine B assay; conditions: read-out: Activity
UACC-62 = test: Growth inhibition of human UACC62 cells assessed as cell growth at 10^-7 M by sulforhodamine B assay; conditions: read-out: Activity
IGROV-1 [18] = test: Growth inhibition of human IGROV1 cells assessed as cell growth at 10^-6 M by sulforhodamine B assay; conditions: read-out: Activity
M14 = test: Growth inhibition of human M14 cells by sulforhodamine B assay
CAKI-1 = test: Growth inhibition of human CAKI-1 cells assessed as cell growth at 10^-7 M by sulforhodamine B assay; conditions: read-out: Activity
K562 [19] = test: Growth inhibition of human K562 cells assessed as cell growth at 10^-6 M by sulforhodamine B assay; conditions: read-out: Activity
SK-MEL-2 = test: Growth inhibition of human SK-MEL-2 cells assessed as cell growth at 10^-8 M by sulforhodamine B assay; conditions: read-out: Activity
MDA-MB-231 [20] = test: Growth inhibition of human MDA-MB-231 cells by sulforhodamine B assay
HCT-116 [21] = test: Growth inhibition of human HCT116 cells assessed as cell growth at 10^-4 M by sulforhodamine B assay; conditions: read-out: Activity
NCI-H226 = test: Growth inhibition of human NCI-H226 cells assessed as cell growth at 10^-8 M by sulforhodamine B assay; conditions: read-out: Activity
HL-60(TB) = test: Growth inhibition of human HL-60(TB) cells assessed as cell growth at 10^-4 M by sulforhodamine B assay; conditions: read-out: Activity
SN12C [22] = test: Growth inhibition of human SN12C cells assessed as cell growth at 10^-8 M by sulforhodamine B assay; conditions: read-out: Activity
CCRF-CEM [23] = test: Growth inhibition of human CCRF-CEM cells assessed as cell growth at 10^-7 M by sulforhodamine B assay; conditions: read-out: Activity
[24] = read-out: LC50 (the source's name)
[25] = read-out: pLC50 (the source's name) (converted)

CC1(C)C[C@@H](O)[C@]2(C(=O)O)CC[C@]3(C)C(=CC[C@@H]4[C@@]5(C)C/C(=C\C=C\c6ccccc6)C(=O)C(C)(C)[C@@H]5CC[C@]43C)[C@@H]2C1
GI50 (SK-MEL-28; read-out: GI50): 4.37 µM | CC50 (SK-MEL-28; [24]): 51.8 µM | TGI (SK-MEL-28; read-out: TGI): 17 µM | GI50 (SK-MEL-28; read-out: pGI50 (converted)): 4.37 µM | CC50 (SK-MEL-28; [25]): 51.3 µM | TGI (SK-MEL-28; read-out: pTGI (converted)): 17 µM | growth at 0.01 µM (786-0 [1]): 101% | growth at 0.1 µM [2]: 108% | growth at 0.01 µM (OVCAR-3): 102% | growth at 0.1 µM [3]: 92% | GI50 (786-0 [4]; read-out: GI50): 3.44 µM | CC50 (786-0 [4]; [24]): 43.1 µM | TGI (786-0 [4]; read-out: TGI): 12.8 µM | GI50 (786-0 [4]; read-out: pGI50 (converted)): 3.47 µM | CC50 (786-0 [4]; [25]): 42.7 µM | TGI (786-0 [4]; read-out: pTGI (converted)): 12.9 µM | growth at 0.1 µM (NCI-H522): 94% | GI50 (NCI-H460; read-out: GI50): 2.67 µM | LC50 (NCI-H460; read-out: LC50): 44.1 µM | TGI (NCI-H460; read-out: TGI): 7.6 µM | GI50 (NCI-H460; read-out: pGI50 (converted)): 2.69 µM | LC50 (NCI-H460; read-out: pLC50 (converted)): 43.7 µM | TGI (NCI-H460; read-out: pTGI (converted)): 7.59 µM | growth at 0.01 µM (IGROV-1 [5]): 107% | GI50 (MDA-MB-468 [6]; read-out: GI50): 3.3 µM | CC50 (MDA-MB-468 [6]; [24]): > 100 µM | TGI (MDA-MB-468 [6]; read-out: TGI): 12.7 µM | GI50 (MDA-MB-468 [6]; read-out: pGI50 (converted)): 3.31 µM | CC50 (MDA-MB-468 [6]; [25]): 37.2 µM | TGI (MDA-MB-468 [6]; read-out: pTGI (converted)): 12.6 µM | growth at 0.01 µM (MDA-MB-435): 98% | growth at 0.1 µM (Malme-3M): 93% | growth at 1 µM (HCT-116 [7]): 90% | growth at 1 µM (TK-10 [8]): 102% | growth at 0.01 µM (COLO 205): 103% | growth at 0.01 µM (K562 [9]): 114% | growth at 1 µM (HOP-92): 76% | growth at 100 µM (NCI-H23): -83% | growth at 0.1 µM (MDA-MB-231 [10]): 102% | growth at 100 µM (RPMI-8226): -6% | growth at 1 µM (MDA-MB-231 [11]): 92% | growth at 100 µM (MDA-MB-468 [12]): -95% | growth at 0.1 µM (TK-10 [13]): 93% | GI50 (RXF 393; read-out: GI50): 2.65 µM | CC50 (RXF 393; [24]): 29.7 µM | TGI (RXF 393; read-out: TGI): 7.65 µM | GI50 (RXF 393; read-out: pGI50 (converted)): 2.63 µM | CC50 (RXF 393; [25]): 29.5 µM | TGI (RXF 393; read-out: pTGI (converted)): 7.59 µM | growth at 1 µM (CCRF-CEM [14]): 96% | growth at 1 µM (SN12C [15]): 91% | growth at 100 µM (OVCAR-4): -97% | growth at 100 µM [16]: -87% | growth at 0.1 µM (SN12C [17]): 98% | growth at 0.1 µM (UACC-62): 93% | growth at 1 µM (IGROV-1 [18]): 113% | GI50 (M14; read-out: GI50): 3.74 µM | CC50 (M14; [24]): 52 µM | TGI (M14; read-out: TGI): 15.8 µM | GI50 (M14; read-out: pGI50 (converted)): 3.72 µM | CC50 (M14; [25]): 52.5 µM | TGI (M14; read-out: pTGI (converted)): 15.8 µM | growth at 0.1 µM (CAKI-1): 97% | growth at 1 µM (K562 [19]): 98% | growth at 0.01 µM (SK-MEL-2): 86% | GI50 (MDA-MB-231 [20]; read-out: GI50): 2.02 µM | CC50 (MDA-MB-231 [20]; [24]): 12.5 µM | TGI (MDA-MB-231 [20]; read-out: TGI): 4.68 µM | GI50 (MDA-MB-231 [20]; read-out: pGI50 (converted)): 2.04 µM | CC50 (MDA-MB-231 [20]; [25]): 12.6 µM | TGI (MDA-MB-231 [20]; read-out: pTGI (converted)): 4.68 µM | growth at 100 µM (HCT-116 [21]): -55% | growth at 0.01 µM (NCI-H226): 97% | growth at 100 µM (HL-60(TB)): -40% | growth at 0.01 µM (SN12C [22]): 98% | growth at 0.1 µM (CCRF-CEM [23]): 102%
